We go through eleven compounds from publication PMC4065032, “Biochemical Characterization of Quinolinic Acid Phosphoribosyltransferase from Mycobacterium tuberculosis H37Rv and Inhibition of Its Activity by Pyrazinamide” (PLoS ONE, 2014).

Several values for one entry are separate records, joined by “and”; a condition that tells them apart may be missing. Equal values may be shown once. Read-outs that look alike come from different tables or passages of the source.

Test [1] concerns the target T1, MtQAPRTase (Mycobacterium tuberculosis, UniProt P9WJJ7).
T1 sequence (P9WJJ7 1-285): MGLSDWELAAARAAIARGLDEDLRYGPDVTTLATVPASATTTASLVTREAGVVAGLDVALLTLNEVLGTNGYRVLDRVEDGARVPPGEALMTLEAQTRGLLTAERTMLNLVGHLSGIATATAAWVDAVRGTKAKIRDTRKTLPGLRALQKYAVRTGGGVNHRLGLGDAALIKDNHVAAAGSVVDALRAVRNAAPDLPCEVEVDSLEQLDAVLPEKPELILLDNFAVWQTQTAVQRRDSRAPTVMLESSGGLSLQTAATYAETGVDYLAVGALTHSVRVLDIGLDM
The test is described as follows: Inhibition of MtQAPRTase activity by PZA/POA (HPLC quantification of NAMN). Format: biochemical, Mycobacterium tuberculosis H37Rv. Set-up: Full-length nadC from M. tuberculosis H37Rv was inserted into the expression vector pET-30a; made in house; host or cells: E. coli BL21 (DE3), pET-30a. The conditions noted are these: for Ki: read-out: Ki estimated from IC50 by web-based tool.

For test [2], the target named is T1, MtQAPRTase. Kind of test: PZA or POA added instead of QA or PRPP as substrate (HPLC). Format: biochemical, Mycobacterium tuberculosis H37Rv. Set-up: Full-length nadC from M. tuberculosis H37Rv was inserted into the expression vector pET-30a; made in house; host or cells: E. coli BL21 (DE3), pET-30a.
The next test deals with T2, WT MtQAPRTase (Mycobacterium tuberculosis, UniProt P9WJJ7).
T2 sequence (P9WJJ7 1-285): T1 sequence (P9WJJ7 1-285)
Kind of test: Kinetic parameters of MtQAPRTase (spectrophotometric assay at 266 nm). Format: biochemical, Mycobacterium tuberculosis H37Rv.

The target of test [3] is T1, MtQAPRTase.

Usually IC50 stands for the point on the concentration scale where inhibition reaches its midpoint. For orientation: Ki means a measure of affinity in units of concentration, obtained from inhibition or displacement. By kcat is commonly meant the number of substrate molecules converted per active site and unit of time at saturation. For orientation: Km means the concentration of substrate that gives half-maximal velocity.

`O=C(O)c1cnccn1` [POA, Pyrazinoic acid]: at MtQAPRTase [1], the IC50 was 3450 µM and > 20000 µM. Also, the Ki on MtQAPRTase [1] (pH 7.2) is 175 µM. At MtQAPRTase [2], the “Use as substrate by MtQAPRTase” value is listed as “not substrates”.

In the case of `O=P(O)(O)OC[C@H]1O[C@H](OP(=O)(O)OP(=O)(O)O)[C@H](O)[C@@H]1O` [PRPP, 5-phosphoribosyl-1-pyrophosphate], the kcat on WT MtQAPRTase (varied substrate, other substrate fixed (QA 0.3 mM or PRPP 1.0 mM), pH 7.2, 37°C) was 0.14 s⁻¹. Besides, the Michaelis constant (Km) at WT MtQAPRTase (varied substrate, other substrate fixed (QA 0.3 mM or PRPP 1.0 mM), pH 7.2, 37°C, read-out: Km) was found to be 390 µM.

In the case of `[Cl][Mn][Cl]` [Mn^2+ (MnCl2), MnCl2], on MtQAPRTase [3], the “Relative Activity” value stood at 27% and the Specific activity was determined as 0.35 Unit/mg.

As for `[Cl-].[Cl-].[Mg+2]` [Mg^2+ (MgCl2), MgCl2], at MtQAPRTase [3], the “Relative Activity” value is recorded as 100% and the Specific activity amounted to 1.32 Unit/mg.

As for `[Cl][Fe][Cl]` [Fe^2+ (FeCl2), FeCl2], at MtQAPRTase [3], the “Relative Activity” value stood at 6% and the Specific activity was determined as 0.06 Unit/mg.

As to `[Cl-].[Cl-].[Co+2]` [Co^2+ (CoCl2), CoCl2], on MtQAPRTase [3], the “Relative Activity” value was found to be 12% and the Specific activity turned out to be 0.15 Unit/mg.

Regarding `NC(=O)c1cnccn1` [PZA, Pyrazinamide], the IC50 against MtQAPRTase [1] was 380 µM and 1370 µM. For the same compound, the Ki on MtQAPRTase [1] (pH 6.2) is 69.4 µM; on MtQAPRTase [1] (pH 7.2) it was 19.2 µM. Moreover, on MtQAPRTase [2], the “Use as substrate by MtQAPRTase” value is recorded as “not substrates”.

In the case of `[Cl-].[Cl-].[Zn+2]` [Zn^2+ (ZnCl2), ZnCl2], at MtQAPRTase [3], the “Relative Activity” value came to 0% and the Specific activity amounted to 0 Unit/mg.

For the compound `O=C(O)c1cccnc1C(=O)O` [QA, 2,3-pyridinedicarboxylic acid], on WT MtQAPRTase (pH 7.2), the Km came out at 80 µM; the kcat is 0.12 s^-1 and 0.12.

On to `[Ca+2].[Cl-].[Cl-]` [Ca^2+ (CaCl2), CaCl2], for which, at MtQAPRTase [3], the “Relative Activity” value is listed as 0% and the Specific activity came out at 0 Unit/mg.

As to `O=S(=O)([O-])[O-].[Cu+2]` [Cu^2+ (CuSO4), CuSO4], at MtQAPRTase [3], the “Relative Activity” value worked out at 0% and the Specific activity was determined as 0 Unit/mg.
